Test [1] concerns the target T1, human TLR7 (Homo sapiens, UniProt Q9NYK1).
T1 sequence (Q9NYK1 27-1049): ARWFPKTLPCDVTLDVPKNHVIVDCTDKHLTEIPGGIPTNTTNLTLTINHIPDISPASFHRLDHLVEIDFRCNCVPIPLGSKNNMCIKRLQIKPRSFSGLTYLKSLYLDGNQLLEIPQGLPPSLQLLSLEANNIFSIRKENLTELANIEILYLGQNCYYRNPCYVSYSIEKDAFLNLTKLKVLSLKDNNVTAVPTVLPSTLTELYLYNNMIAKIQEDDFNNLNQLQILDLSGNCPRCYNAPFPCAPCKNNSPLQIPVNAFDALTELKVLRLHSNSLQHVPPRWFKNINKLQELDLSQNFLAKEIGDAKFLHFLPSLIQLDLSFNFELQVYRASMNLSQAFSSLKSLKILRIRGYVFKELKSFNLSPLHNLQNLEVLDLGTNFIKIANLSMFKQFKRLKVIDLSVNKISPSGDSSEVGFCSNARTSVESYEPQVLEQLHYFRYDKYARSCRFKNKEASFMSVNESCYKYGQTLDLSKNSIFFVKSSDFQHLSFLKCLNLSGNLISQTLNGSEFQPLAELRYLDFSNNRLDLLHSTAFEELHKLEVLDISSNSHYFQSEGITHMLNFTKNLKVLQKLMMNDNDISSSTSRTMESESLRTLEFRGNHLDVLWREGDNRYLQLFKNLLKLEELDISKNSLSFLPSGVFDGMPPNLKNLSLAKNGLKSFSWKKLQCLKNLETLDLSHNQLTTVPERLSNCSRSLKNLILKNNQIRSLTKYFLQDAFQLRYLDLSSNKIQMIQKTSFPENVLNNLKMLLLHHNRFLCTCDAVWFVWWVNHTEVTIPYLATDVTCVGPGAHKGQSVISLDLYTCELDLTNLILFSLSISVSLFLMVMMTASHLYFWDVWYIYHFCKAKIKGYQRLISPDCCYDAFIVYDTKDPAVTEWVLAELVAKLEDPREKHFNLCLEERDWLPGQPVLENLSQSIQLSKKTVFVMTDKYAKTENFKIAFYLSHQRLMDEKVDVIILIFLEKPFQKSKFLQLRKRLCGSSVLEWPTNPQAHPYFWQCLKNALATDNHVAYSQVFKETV
Description: HEK293-Blue-hTLR-7 cells assay (SEAP reporter). The note with it: TLR7 agonism, 20 hours incubation, 1% DMSO. The test is classed as cell-based. The source says:
HEK293-Blue-hTLR-7 Cells Assay
(§1) A stable HEK293-Blue-hTLR-7 cell line was purchased from InvivoGen (Cat. #: hkb-htlr7, San Diego, Calif., USA). These cells were designed for studying the stimulation of human TLR7 by monitoring the activation of NF-κB. A SEAP (secreted embryonic alkaline phosphatase) reporter gene was placed under the control of the IFN-β minimal promoter fused to five NF-κB and AP-1-binding sites. The SEAP was induced by activating NF-κB and AP-1 via stimulating HEK-Blue hTLR7 cells with TLR7 ligands. Therefore the reporter expression was regulated by the NF-κB promoter upon stimulation of human TLR7. The cell culture supernatant SEAP reporter activity was determined using QUANTI-Blue™ kit (Cat. #: rep-qb 1, Invivogen, San Diego, Calif., USA) at a wavelength of 640 nm, a detection medium that turns purple to blue in the presence of alkaline phosphatase.
(§2) HEK293-Blue-hTLR7 cells were incubated at a density of 250,000˜450,000 cells/mL in a volume of 180 μL in a 96-well plate in Dulbecco's Modified Eagle's medium (DMEM) containing 4.5 g/L glucose, 50 U/mL penicillin, […], […], 2 mM L-glutamine, 10% (v/v) heat-inactivated fetal bovine serum for 24 hours. Then the HEK293-Blue-hTLR-7 cells were incubated with addition of 20 μL test compound in a serial dilution in the presence of final DMSO at 1% and perform incubation under 37° C. in a CO2 incubator for 20 hours. Then 20 μL of the supernatant from each well was incubated with 180 μL Quanti-blue substrate solution at 37° C. for 1-3 hours and the absorbance was read at 620-655 nm using a spectrophotometer. The signalling pathway that TLR7 activation leads to downstream NF-κB activation has been widely accepted, and therefore similar reporter assay was also widely used for evaluating TLR7 agonist (Tsuneyasu Kaisho and Takashi Tanaka, Trends in Immunology, Volume 29, Issue 7, July 2008, Pages 329. sci; Hiroaki Hemmi et al, Nature Immunology 3, 2002, 196-200).
(§3) The compounds of the present invention were tested in the above assay for their TLR7 and TLR8 agonism activities as described herein and results are listed in Table 1.

Test [2] deals with T2, human TLR8 (Homo sapiens, UniProt Q9NR97).
T2 sequence (Q9NR97 27-1041): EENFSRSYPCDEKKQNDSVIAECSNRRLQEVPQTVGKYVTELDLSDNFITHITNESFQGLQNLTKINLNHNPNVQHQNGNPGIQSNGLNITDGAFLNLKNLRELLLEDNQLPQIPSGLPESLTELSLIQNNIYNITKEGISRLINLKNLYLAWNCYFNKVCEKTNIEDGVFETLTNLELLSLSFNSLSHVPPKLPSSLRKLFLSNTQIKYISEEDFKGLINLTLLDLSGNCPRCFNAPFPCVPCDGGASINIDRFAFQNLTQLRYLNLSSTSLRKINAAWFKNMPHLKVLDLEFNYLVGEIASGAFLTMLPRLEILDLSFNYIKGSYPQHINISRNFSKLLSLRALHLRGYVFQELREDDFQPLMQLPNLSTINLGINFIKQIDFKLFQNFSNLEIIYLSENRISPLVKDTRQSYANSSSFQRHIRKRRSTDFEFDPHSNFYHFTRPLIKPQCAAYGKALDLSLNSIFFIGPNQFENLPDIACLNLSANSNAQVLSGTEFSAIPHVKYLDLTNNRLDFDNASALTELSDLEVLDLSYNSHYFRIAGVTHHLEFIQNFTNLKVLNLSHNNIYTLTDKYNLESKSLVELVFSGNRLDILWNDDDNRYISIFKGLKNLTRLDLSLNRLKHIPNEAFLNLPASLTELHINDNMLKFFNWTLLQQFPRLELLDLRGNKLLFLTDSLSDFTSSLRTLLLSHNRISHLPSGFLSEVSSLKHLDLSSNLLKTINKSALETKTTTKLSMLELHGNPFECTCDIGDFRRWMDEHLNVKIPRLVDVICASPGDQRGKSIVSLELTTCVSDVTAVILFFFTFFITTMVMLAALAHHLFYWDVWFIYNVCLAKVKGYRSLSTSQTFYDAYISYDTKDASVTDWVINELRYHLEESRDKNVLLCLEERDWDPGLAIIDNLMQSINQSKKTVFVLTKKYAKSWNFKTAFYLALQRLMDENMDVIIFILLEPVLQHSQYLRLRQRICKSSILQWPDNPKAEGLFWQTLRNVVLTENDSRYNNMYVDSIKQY
The test is described as follows: HEK293-Blue-hTLR-8 cells assay (SEAP reporter). It is filed as cell-based. Conditions: TLR8 agonism, 20 hours incubation, 1% DMSO.
From the text: HEK293-Blue-hTLR-8 cells assay:
as §1, with “HEK293-Blue-hTLR-8” for “HEK293-Blue-hTLR-7”, “hkb-htlr8,” for “hkb-htlr7,”, “TLR8” for “TLR7”, “hTLR8” for “hTLR7”, “TLR8.” for “TLR7.”
as §2, with “HEK293-Blue-hTLR8” for “HEK293-Blue-hTLR7”, “250,000-450,000” for “250,000˜450,000”, “HEK293-Blue-hTLR-8” for “HEK293-Blue-hTLR-7”, “TLR8” for “TLR7”, “TLR8 agonist.” for “TLR7 agonist (Tsuneyasu Kaisho and Takashi Tanaka, Trends in Immunology, Volume 29, Issue 7, July 2008, Pages 329. sci; Hiroaki Hemmi et al, Nature Immunology 3, 2002, 196-200).”
as §3

As to `CC[C@H](O)[C@@H]1C[C@@H]([C@H](C)NCc2ccccc2)[C@H](n2c(=O)sc3c(=O)[nH]c(N)nc32)O1` [Example 7, 5-Amino-3-[(2R,3S,5S)-3-[(1S)-1-(benzylamino)ethyl]-5-[(1S)-1-hydroxypropyl]tetrahydrofuran-2-yl]-6H-thiazolo[4,5-d]pyrimidine-2,7-dione], the half-maximal effective concentration (EC50) (as a rule, the concentration that produces a half-maximal response) worked out at 3.4 µM in test [1] and 2.2 µM in test [2].
As for `CC[C@H](O)[C@@H]1C[C@@H]([C@@H](C)NC2CC2)[C@H](n2c(=O)sc3c(=O)[nH]c(N)nc32)O1` [Example 4, 5-Amino-3-[(2R,3S,5S)-3-[(1R)-1-(cyclopropylamino)ethyl]-5-[(1S)-1-hydroxypropyl]tetrahydrofuran-2-yl]-6H-thiazolo[4,5-d]pyrimidine-2,7-dione], the EC50 stood at 3.5 µM in test [1] and 94 µM in test [2].
As to `CCCN[C@H](C)[C@@H]1C[C@@H]([C@@H](O)CC)O[C@H]1n1c(=O)sc2c(=O)[nH]c(N)nc21` [Example 3, 5-Amino-3-[(2R,3S,5S)-5-[(1S)-1-hydroxypropyl]-3-[(1R)-1-(propylamino)ethyl]tetrahydrofuran-2-yl]-6H-thiazolo[4,5-d]pyrimidine-2,7-dione], the EC50 came out at 7.7 µM in test [1] and 125 µM in test [2].
The like results for `CC[C@H](O)[C@@H]1C[C@@H]([C@@H](C)N(C)C)[C@H](n2c(=O)sc3c(=O)[nH]c(N)nc32)O1` [Example 8, 5-Amino-3-[(2R,3S,5S)-3-[(1R)-1-(dimethylamino)ethyl]-5-[(1S)-1-hydroxypropyl]tetrahydrofuran-2-yl]-6H-thiazolo[4,5-d]pyrimidine-2,7-dione] were, in that order, 82 µM and 185 µM.
The like results for `CC[C@H](O)[C@@H]1C[C@@H]([C@H](C)N)[C@H](n2c(=O)sc3c(=O)[nH]c(N)nc32)O1` [Example 1-A, 5-Amino-3-[(2R,3S,5S)-3-[(1S)-1-aminoethyl]-5-[(1S)-1-hydroxypropyl]tetrahydrofuran-2-yl]-6H-thiazolo[4,5-d]pyrimidine-2,7-dione] were, in that order, 75 µM and 1.3 µM.
Turning to `CC[C@H](O)[C@@H]1C[C@@H]([C@H](C)NC)[C@H](n2c(=O)sc3c(=O)[nH]c(N)nc32)O1` [Example 6, 5-Amino-3-[(2R,3S,5S)-5-[(1S)-1-hydroxypropyl]-3-[(1S)-1-(methylamino)ethyl]tetrahydrofuran-2-yl]-6H-thiazolo[4,5-d]pyrimidine-2,7-dione], the concentration giving a half-maximal response (EC50) was 250 µM in test [1] and 4 µM in test [2].
Turning to `CC[C@H](O)[C@@H]1C[C@@H]([C@@H](C)N)[C@H](n2c(=O)sc3c(=O)[nH]c(N)nc32)O1` [Example 1-B, 5-amino-3-[(2R,3S,5S)-3-[(1R)-1-aminoethyl]-5-[(1S)-1-hydroxypropyl]tetrahydrofuran-2-yl]-6H-thiazolo[4,5-d]pyrimidine-2,7-dione], the EC50 was 101 µM in test [1] and 55 µM in test [2].
For `CC[C@H](O)[C@@H]1C[C@@H]([C@@H](C)NC)[C@H](n2c(=O)sc3c(=O)[nH]c(N)nc32)O1` [Example 2, 5-Amino-3-[(2R,3S,5S)-5-[(1S)-1-hydroxypropyl]-3-[(1R)-1-(methylamino)ethyl]tetrahydrofuran-2-yl]-6H-thiazolo[4,5-d]pyrimidine-2,7-dione], in that order: 81 µM and 27 µM.
For `CC[C@H](O)[C@@H]1C[C@@H]([C@@H](C)NCc2ccccc2)[C@H](n2c(=O)sc3c(=O)[nH]c(N)nc32)O1` [Example 5, 5-Amino-3-[(2R,3S,5S)-3-[(1R)-1-(benzylamino)ethyl]-5-[(1S)-1-hydroxypropyl]tetrahydrofuran-2-yl]-6H-thiazolo[4,5-d]pyrimidine-2,7-dione], in that order: 3.7 µM and 85 µM.

Source of the values: patent US10975098B2, “Substituted aminothiazolopyrimidinediones for the treatment of virus infection” (Hoffmann-La Roche Inc., priority 2015, dated 2021).
